In the NIST ThermoML archive (doi:10.1016/j.fluid.2010.10.028):

Assay: xn = mol fraction of the nth substance listed
Conditions: Liquid, Vibrating tube method

CC(C)=O [acetone] + CCCCCCC
Conditions	mass density [kg/m3]
357.56 K, 109800 kPa, x1 = 0.492	744.86
357.56 K, 109860 kPa, x1 = 0.611	755.29
357.56 K, 114650 kPa, x1 = 0.4	797.46
357.56 K, 114650 kPa, x1 = 0.8992	797.46
357.56 K, 114760 kPa, x1 = 0.492	747.47
357.56 K, 114840 kPa, x1 = 0.801	781.49
357.56 K, 114860 kPa, x1 = 0.611	758
357.56 K, 119620 kPa, x1 = 0.4	800.25
357.56 K, 119620 kPa, x1 = 0.8992	800.25
357.56 K, 119840 kPa, x1 = 0.611	760.62
357.56 K, 119850 kPa, x1 = 0.492	750.09
357.56 K, 124590 kPa, x1 = 0.4	802.96
357.56 K, 124590 kPa, x1 = 0.8992	802.96
357.56 K, 124850 kPa, x1 = 0.492	752.62
357.56 K, 124850 kPa, x1 = 0.611	763.18
357.56 K, 124850 kPa, x1 = 0.801	786.88
357.56 K, 129540 kPa, x1 = 0.4	805.62
357.56 K, 129540 kPa, x1 = 0.8992	805.62
357.56 K, 129840 kPa, x1 = 0.492	755.04
357.56 K, 129850 kPa, x1 = 0.611	765.68
357.57 K, 19850 kPa, x1 = 0.801	705.47
357.57 K, 24850 kPa, x1 = 0.801	711.56
357.57 K, 29850 kPa, x1 = 0.801	717.2
357.57 K, 39860 kPa, x1 = 0.801	727.56
357.57 K, 44860 kPa, x1 = 0.801	732.3
357.57 K, 49830 kPa, x1 = 0.801	736.79
357.57 K, 54840 kPa, x1 = 0.801	741.09
357.57 K, 79870 kPa, x1 = 0.801	760
357.57 K, 109760 kPa, x1 = 0.801	778.61
357.57 K, 119850 kPa, x1 = 0.801	784.21
357.57 K, 129840 kPa, x1 = 0.801	789.47
367.47 K, 1110 kPa, x1 = 0.7024	653.24
367.47 K, 4830 kPa, x1 = 0.7024	660.5
367.47 K, 9820 kPa, x1 = 0.7024	669.16
367.47 K, 14810 kPa, x1 = 0.7024	676.86
367.47 K, 19800 kPa, x1 = 0.7024	683.87
367.47 K, 24870 kPa, x1 = 0.7024	690.44
367.47 K, 29900 kPa, x1 = 0.7024	696.42
367.47 K, 29980 kPa, x1 = 0.4	723.61
367.47 K, 29980 kPa, x1 = 0.8992	723.61
367.47 K, 34870 kPa, x1 = 0.7024	701.98
367.47 K, 39870 kPa, x1 = 0.7024	707.22
367.47 K, 44860 kPa, x1 = 0.7024	712.14
367.47 K, 49850 kPa, x1 = 0.7024	716.78
367.47 K, 54840 kPa, x1 = 0.7024	721.18
367.47 K, 59880 kPa, x1 = 0.4	753.02
367.47 K, 59880 kPa, x1 = 0.8992	753.02
367.47 K, 64830 kPa, x1 = 0.7024	729.41
367.47 K, 69810 kPa, x1 = 0.7024	733.25
367.47 K, 79780 kPa, x1 = 0.7024	740.5
367.47 K, 89740 kPa, x1 = 0.7024	747.21
367.47 K, 94830 kPa, x1 = 0.7024	750.48
367.47 K, 99830 kPa, x1 = 0.7024	753.58
367.47 K, 104830 kPa, x1 = 0.7024	756.58
367.47 K, 109810 kPa, x1 = 0.7024	759.49
367.47 K, 114820 kPa, x1 = 0.7024	762.32
367.47 K, 119810 kPa, x1 = 0.7024	765.08
367.47 K, 124820 kPa, x1 = 0.7024	767.78
367.47 K, 129810 kPa, x1 = 0.7024	770.39
367.48 K, 1150 kPa, x1 = 0.611	644.69
367.48 K, 5040 kPa, x1 = 0.4	687.92
367.48 K, 5040 kPa, x1 = 0.8992	687.92
367.48 K, 9850 kPa, x1 = 0.611	660.49
367.48 K, 10030 kPa, x1 = 0.4	696.45
367.48 K, 10030 kPa, x1 = 0.8992	696.45
367.48 K, 15010 kPa, x1 = 0.4	704.13
367.48 K, 15010 kPa, x1 = 0.8992	704.13
367.48 K, 19860 kPa, x1 = 0.611	675.16
367.48 K, 20000 kPa, x1 = 0.4	711.11
367.48 K, 20000 kPa, x1 = 0.8992	711.11
367.48 K, 24860 kPa, x1 = 0.611	681.55
367.48 K, 25000 kPa, x1 = 0.4	717.58
367.48 K, 25000 kPa, x1 = 0.8992	717.58
367.48 K, 29870 kPa, x1 = 0.611	687.49
367.48 K, 34860 kPa, x1 = 0.611	693
367.48 K, 39940 kPa, x1 = 0.4	734.49
367.48 K, 39940 kPa, x1 = 0.8992	734.49
367.48 K, 44850 kPa, x1 = 0.611	703
367.48 K, 44920 kPa, x1 = 0.4	739.45
367.48 K, 44920 kPa, x1 = 0.8992	739.45
367.48 K, 49910 kPa, x1 = 0.4	744.24
367.48 K, 49910 kPa, x1 = 0.8992	744.24
367.48 K, 49940 kPa, x1 = 0.611	707.7
367.48 K, 54900 kPa, x1 = 0.4	748.72
367.48 K, 54900 kPa, x1 = 0.8992	748.72
367.48 K, 54920 kPa, x1 = 0.611	712.06
367.48 K, 59830 kPa, x1 = 0.7024	725.38
367.48 K, 64860 kPa, x1 = 0.4	757.11
367.48 K, 64860 kPa, x1 = 0.8992	757.11
367.48 K, 64900 kPa, x1 = 0.611	720.16
367.48 K, 69840 kPa, x1 = 0.4	761.04
